Assay results published in patent publication US3991202A, “Imidazolium salts” (Janssen Pharmaceutica N.V., priority 1974, dated 1976).

Tests used:
Assay in all cases: Antifungal growth inhibition in Sabouraud's liquid medium
Format in all cases: cell-based
Cryptococcus neoformans = conditions: Cr.n., tested at 100, 10, 1 μg/ml; for MIC: Cryptococcus neoformans, 336 h, read-out: Concentrations in μg/ml for 100% Inhibition of Growth
Method: (§1) Tests for the control of fungal organisms were performed using Sabouraud's liquid medium (1 g. of neopeptone Difco and 2 g. of glucose Difco per 100 ml. distilled water) in test tubes, each containing 4.5 ml. of liquid medium, autoclaved at 120° C for 15 minutes. The imidazolium salts were prepared for testing by dissolving in 50% ethanol to a concentration of 20 mg./ml. and thereafter diluting with sterile distilled water to obtain a concentration of 10 mg./ml. Successive decimal dilutions were then made with sterile distilled water to prepare a series of test solutions. In carrying out the test, 0.5 ml. of one of the test solutions is added to 4.5 ml. of Sabouraud's liquid medium to obtain a test medium. In this manner, from appropriate test solution, test media containing 100 μg, 10 μg and 1 μg of imidazolium salt per milliliter of medium were obtained.
(§2) Control tubes were prepared by adding 0.5 ml. of sterile distilled water to 4.5 ml. of medium. Ethanol was also added to simulate the amount which would be present in the test media. Filamentous fungi were incubated at 25° C for two to three weeks. A square block of side 2 mm. was excised and inoculated into the liquid medium. A 3-day old culture on Sabouraud's liquid medium was used for yeasts. The inoculum was 0.05 ml. per tube. All cultures were incubated at 25° C for 14 days.

[1] = tested on: Ctenomyces mentagrophytes; conditions: Ct.m., tested at 100, 10, 1 μg/ml; for MIC: Trichophyton mentagrophytes, 336 h, read-out: Concentrations in μg/ml for 100% Inhibition of Growth
Method: as §1, §2

Microsporum canis = conditions: M.c., tested at 100, 10, 1 μg/ml; for MIC: Microsporum canis, 336 h, read-out: Concentrations in μg/ml for 100% Inhibition of Growth
Method: as §1, §2

Trichophyton rubrum = conditions: Tr.r., tested at 100, 10, 1 μg/ml; for MIC: Trichophyton rubrum, 336 h, read-out: Concentrations in μg/ml for 100% Inhibition of Growth
Method: as §1, §2

In the case of `Cc1cccc(C)c1N(C)C(=O)C[n+]1ccn(CC(OCc2ccc(Cl)cc2Cl)c2ccc(Cl)cc2Cl)c1` (stereo not drawn), the MIC (Cryptococcus neoformans) was 10 µg/mL, the MIC [1] was 10 µg/mL and the MIC (Microsporum canis) was 10 µg/mL. For the same compound, the MIC (Trichophyton rubrum) was 1 µg/mL.

For `CC(C(=O)Nc1ccccc1Cl)[n+]1ccn(CC(OCc2ccc(Cl)cc2Cl)c2ccc(Cl)cc2Cl)c1` (stereo not drawn), the MIC (Cryptococcus neoformans) was 100 µg/mL, the MIC [1] was 10 µg/mL and the MIC (Microsporum canis) was 10 µg/mL. It also gave an MIC (Trichophyton rubrum) of 1 µg/mL.

In the case of `Cc1cccc(Cl)c1CNC(=O)C(C)[n+]1ccn(CC(OCc2ccc(Cl)cc2Cl)c2ccc(Cl)cc2Cl)c1` (stereo not drawn), the MIC (Cryptococcus neoformans) was 100 µg/mL, the MIC [1] was 1 µg/mL and the MIC (Microsporum canis) was 1 µg/mL. The MIC (Trichophyton rubrum) was 1 µg/mL.

Compound `O=C(C[n+]1ccn(CC(OCc2ccc(Cl)cc2Cl)c2ccc(Cl)cc2Cl)c1)c1cccs1` (stereo not drawn) has an MIC (Cryptococcus neoformans) of 10 µg/mL, an MIC [1] of 1 µg/mL and an MIC (Microsporum canis) of 10 µg/mL. For the same compound, the MIC (Trichophyton rubrum) was 1 µg/mL.

`O=C(C[n+]1ccn(CC(OCc2ccc(Cl)cc2Cl)c2ccc(Cl)cc2Cl)c1)c1ccc(Cl)s1` (stereo not drawn) gave an MIC (Cryptococcus neoformans) of 10 µg/mL, an MIC [1] of 1 µg/mL and an MIC (Microsporum canis) of 1 µg/mL. The MIC (Trichophyton rubrum) was 1 µg/mL.

In the case of `OC(C[n+]1ccn(CC(OCc2ccc(Cl)cc2Cl)c2ccc(Cl)cc2Cl)c1)c1ccc(Cl)cc1` (stereo not drawn), the MIC (Cryptococcus neoformans) was 10 µg/mL, the MIC [1] was 1 µg/mL and the MIC (Microsporum canis) was 10 µg/mL. The MIC (Trichophyton rubrum) was 1 µg/mL.

With “1-(β-butoxy2,4-dichlorophenethyl)-3-[p-chloro-a-(p-fluorophenyl)benzyl]imidazolium chloride” the “Concentrations in μg/ml for 100% Inhibition of Growth” value (Cryptococcus neoformans) was 100 µg/mL, the “Concentrations in μg/ml for 100% Inhibition of Growth” value [1] was 10 µg/mL and the “Concentrations in μg/ml for 100% Inhibition of Growth” value (Microsporum canis) was 10 µg/mL. For the same compound, the “Concentrations in μg/ml for 100% Inhibition of Growth” value (Trichophyton rubrum) was 10 µg/mL.

In the case of `Cc1ccccc1NC(=O)C[n+]1ccn(CC(OCc2ccc(Cl)cc2)c2ccc(Cl)cc2Cl)c1` (stereo not drawn) [2,4(Cl)2C6H3/CH2C6H4pCl/CH2CONHoCH3, 1-[2,4-Dichloro-β-(p-chlorobenzyloxy)phenethyl]-3-(N-o-tolylcarbamoymethyl)imidazolium cholride], the MIC (Cryptococcus neoformans) was 10 µg/mL, the MIC [1] was 1 µg/mL and the MIC (Microsporum canis) was 10 µg/mL. For the same compound, the MIC (Trichophyton rubrum) was 1 µg/mL.

In the case of `C=CCOC(Cn1cc[n+](CC(=O)c2ccc(F)cc2)c1)c1ccc(Cl)cc1Cl` (stereo not drawn) [2,4(Cl)2C6H3/CH2CHCH2/CH2COC6H4pF, 1-[β-(alloyloxy)-2,4-dichlorophenethyl]-3-(p-fluorophenacyl)imidazolium chloride], the MIC (Cryptococcus neoformans) was 100 µg/mL, the MIC [1] was 10 µg/mL and the MIC (Microsporum canis) was 10 µg/mL. For the same compound, the MIC (Trichophyton rubrum) was 10 µg/mL.

With `OC(C[n+]1ccn(CC(OCc2ccc(Cl)cc2)c2ccc(Cl)cc2Cl)c1)c1ccc(Cl)cc1` (stereo not drawn) [2,4(Cl)2C6H3/drawing 65/CH2CHOHC6H4pCl] the MIC (Cryptococcus neoformans) was 100 µg/mL, the MIC [1] was 1 µg/mL and the MIC (Microsporum canis) was 1 µg/mL. It also gave an MIC (Trichophyton rubrum) of 1 µg/mL.

`O=C(C[n+]1ccn(CC(OCc2ccc(Cl)cc2)c2ccc(Cl)cc2Cl)c1)c1ccc(F)cc1` (stereo not drawn) [2,4(Cl)2C6H3/drawing 65/CH2COC6H4pF] was tested, and the MIC (Cryptococcus neoformans) was 10 µg/mL, the MIC [1] was 1 µg/mL and the MIC (Microsporum canis) was 1 µg/mL. For the same compound, the MIC (Trichophyton rubrum) was 1 µg/mL.

Compound `OC(C[n+]1ccn(CC(OCc2c(Cl)cccc2Cl)c2ccc(Cl)cc2Cl)c1)c1ccc(Cl)cc1` (stereo not drawn) [2,4(Cl)2C6H3/drawing 66/CH2CHOHC6H4pCl] has an MIC (Cryptococcus neoformans) of 10 µg/mL, an MIC [1] of 10 µg/mL and an MIC (Microsporum canis) of 10 µg/mL. The MIC (Trichophyton rubrum) was 1 µg/mL.

`O=C(C[n+]1ccn(CC(OCc2c(Cl)cccc2Cl)c2ccc(Cl)cc2Cl)c1)c1ccc(F)cc1` (stereo not drawn) [2,4(Cl)2C6H3/drawing 66/CH2COC6H4pF] showed an MIC (Cryptococcus neoformans) of 10 µg/mL, an MIC [1] of 10 µg/mL and an MIC (Microsporum canis) of 10 µg/mL. The MIC (Trichophyton rubrum) was 1 µg/mL.

For `CCCCOC(Cn1cc[n+](CC(=O)Nc2ccc(F)cc2)c1)c1ccc(Cl)cc1Cl` (stereo not drawn) [2,4(Cl)2C6H3/nC4H9/CH2CONHC6H4pF, 1-(β-Butoxy-2,4-dichlorophenethyl)-3-[N-(p-fluorophenyl)carbamoylmethyl]imidazolium chloride], the MIC (Cryptococcus neoformans) was 100 µg/mL, the MIC [1] was 10 µg/mL and the MIC (Microsporum canis) was 10 µg/mL. It also gave an MIC (Trichophyton rubrum) of 10 µg/mL.

With `O=C(CCn1cc[n+](CC(OCc2ccc(Cl)cc2Cl)c2ccc(Cl)cc2Cl)c1)c1ccc(Br)cc1.[Cl-]` (stereo not drawn) [(CH2)2COC6H4pBr, 1-[2-(p-Bromobenzoyl)ethyl]-3-[2,4-dichloro-β-(2,4-dichlorobenzyloxy)phenethyl]imidazolium chloride] the MIC (Cryptococcus neoformans) was 1 µg/mL, the MIC [1] was 1 µg/mL and the MIC (Microsporum canis) was 10 µg/mL. For the same compound, the MIC (Trichophyton rubrum) was 1 µg/mL.

For `O=C(CCn1cc[n+](CC(OCc2ccc(Cl)cc2Cl)c2ccc(Cl)cc2Cl)c1)c1ccc(Cl)cc1.[Cl-]` (stereo not drawn) [(CH2)2COC6H4pCl, 1-[2-(p-Chlorobenzoyl)ethyl]-3-[2,4-dichloro-β-(2,4dichlorobenzyloxy)phenethyl]imidazolium chloride], the MIC (Cryptococcus neoformans) was 1 µg/mL, the MIC [1] was 1 µg/mL and the MIC (Microsporum canis) was 1 µg/mL. The MIC (Trichophyton rubrum) was 1 µg/mL.

Work on `O=C(CC[n+]1ccn(CC(OCc2ccc(Cl)cc2Cl)c2ccc(Cl)cc2Cl)c1)Nc1ccccc1[N+](=O)[O-].[Cl-]` (stereo not drawn) [(CH2)2CONHC6H4oNO2, 1-[2,4-Dichloro-β-(2,4-dichlorobenzyloxy)-phenethyl]-3-{2-[N-(o-nitrophenyl)carbamoyl]ethyl}imidazolium chloride] yielded an MIC (Cryptococcus neoformans) of 100 µg/mL, an MIC [1] of 1 µg/mL and an MIC (Microsporum canis) of 10 µg/mL. The MIC (Trichophyton rubrum) was 1 µg/mL.

`Clc1ccc(NCCn2cc[n+](CC(OCc3ccc(Cl)cc3Cl)c3ccc(Cl)cc3Cl)c2)cc1.[Br-]` (stereo not drawn) [(CH2)2NHC6H4pCl, 1-[2-(p-chloroanilino)ethyl]-3-[2,4-dichloro-β-(2,4-dichlorobenzyloxy)phenethyl]imidazolium bromide] gave an MIC (Cryptococcus neoformans) of 1 µg/mL, an MIC [1] of 10 µg/mL and an MIC (Microsporum canis) of 10 µg/mL. The MIC (Trichophyton rubrum) was 10 µg/mL.

`Cc1cccc(C)c1OCC[n+]1ccn(CC(OCc2ccc(Cl)cc2Cl)c2ccc(Cl)cc2Cl)c1.[Br-]` (stereo not drawn) [(CH2)2OC6H32,6(CH3)2, 1-[2,4-Dichloro-β-(2,4-dichlorobenzyloxy)phenethyl]-3-[2-(2,6-xylyloxy)ethyl]imidazolium bromide] showed an MIC (Cryptococcus neoformans) of 1 µg/mL, an MIC [1] of 1 µg/mL and an MIC (Microsporum canis) of 10 µg/mL. It also gave an MIC (Trichophyton rubrum) of 10 µg/mL.

With `Clc1ccc(COC(Cn2cc[n+](CCOc3ccc4ccccc4c3)c2)c2ccc(Cl)cc2Cl)c(Cl)c1.O.[Br-]` (stereo not drawn) [(CH2)2OC10H7, 1-[2,4-Dichloro-β-(2,4-dichlorobenzyloxy)phenethyl]3-[2-(2-naphthyloxy)ethyl]imidazolium bromide hydrate] the MIC (Cryptococcus neoformans) was 1 µg/mL, the MIC [1] was 10 µg/mL and the MIC (Microsporum canis) was 10 µg/mL. For the same compound, the MIC (Trichophyton rubrum) was 10 µg/mL.

Compound `Clc1ccc(COC(Cn2cc[n+](CCCOc3ccc4ccccc4c3)c2)c2ccc(Cl)cc2Cl)c(Cl)c1.O.[Cl-]` (stereo not drawn) [(CH2)3OC10H7, 1-[2,4-Dichloro-β-(2,4-dichlorobenzyloxy)phenethyl]-3-[3-(2-naphthyloxy)propyl]imidazolium chloride hydrate] has an MIC (Cryptococcus neoformans) of 100 µg/mL, an MIC [1] of 10 µg/mL and an MIC (Microsporum canis) of 10 µg/mL. It also gave an MIC (Trichophyton rubrum) of 10 µg/mL.

Compound `Clc1ccc(C=CCn2cc[n+](CC(OCc3ccc(Cl)cc3Cl)c3ccc(Cl)cc3Cl)c2)c(Cl)c1.[Cl-]` (stereo not drawn) [CH2CHCHC6H3s,4(Cl)2, 1-(2,4-dichlorocinnamyl)-3-[2,4-dichloro-β-(2,4-dichlorobenzyloxy)phenethyl]-imidazolium chloride] has an MIC (Cryptococcus neoformans) of 10 µg/mL, an MIC [1] of 1 µg/mL and an MIC (Microsporum canis) of 10 µg/mL. For the same compound, the MIC (Trichophyton rubrum) was 10 µg/mL.

For `Clc1ccc(COC(C[n+]2ccn(CC=Cc3ccccc3)c2)c2ccc(Cl)cc2Cl)c(Cl)c1.[Cl-]` (stereo not drawn) [CH2CHCHC6H5, 1-Cinnamyl-3-[2,4-dichloro-β-(2,4-dichlorobenzyloxy)phenethyl]imidazolium chloride], the MIC (Cryptococcus neoformans) was 100 µg/mL, the MIC [1] was 10 µg/mL and the MIC (Microsporum canis) was 10 µg/mL. For the same compound, the MIC (Trichophyton rubrum) was 1 µg/mL.

`COc1cccc(C(=O)C[n+]2ccn(CC(OCc3ccc(Cl)cc3Cl)c3ccc(Cl)cc3Cl)c2)c1.[Br-]` (stereo not drawn) [CH2COC6H4mOCH3, 1-[2,4-dichloro-β-(2,4-dichlorobenzyloxy)phenethyl]-3-(m-methoxyphenacyl)imidazolium bromide] showed an MIC (Cryptococcus neoformans) of 10 µg/mL, an MIC [1] of 1 µg/mL and an MIC (Microsporum canis) of 10 µg/mL. It also gave an MIC (Trichophyton rubrum) of 1 µg/mL.

Compound `COc1ccc(C(=O)C[n+]2ccn(CC(OCc3ccc(Cl)cc3Cl)c3ccc(Cl)cc3Cl)c2)cc1.[Br-]` (stereo not drawn) [CH2COC6H4p(OCH3), 1-[2,4-Dichloro-β-(2,4-dichlorobenzyloxy)phenethyl]-3-(p-methoxyphenacyl)imidazolium bromide] has an MIC (Cryptococcus neoformans) of 10 µg/mL, an MIC [1] of 10 µg/mL and an MIC (Microsporum canis) of 10 µg/mL. The MIC (Trichophyton rubrum) was 1 µg/mL.

Compound `O=C(Cn1cc[n+](CC(OCc2ccc(Cl)cc2Cl)c2ccc(Cl)cc2Cl)c1)c1ccc(Br)cc1.[Cl-]` (stereo not drawn) [CH2COC6H4pBr, 1-(p-bromobenzoylmethyl)-3-[2,4-dichloro-β-(2,4-dichlorobenzyloxy)phenethyl]imidazolium chloride] has an MIC (Cryptococcus neoformans) of 1 µg/mL, an MIC [1] of 1 µg/mL and an MIC (Microsporum canis) of 10 µg/mL. For the same compound, the MIC (Trichophyton rubrum) was 1 µg/mL.

Work on `O=C(Cn1cc[n+](CC(OCc2ccc(Cl)cc2Cl)c2ccc(Cl)cc2Cl)c1)c1ccc(Cl)cc1.[Br-]` (stereo not drawn) [CH2COC6H4pCl, 1-(p-chlorobenzoylmethyl)-3-[2,4-dichloro-β-(2,4-dichlorobenzyloxy)phenethyl]imidazolium bromide] yielded an MIC (Cryptococcus neoformans) of 1 µg/mL, an MIC [1] of 1 µg/mL and an MIC (Microsporum canis) of 1 µg/mL. For the same compound, the MIC (Trichophyton rubrum) was 1 µg/mL.
